Assay results published in PMC12010937, “Evaluation of FXR Activity in Pollutants Identified in Sewage Sludge and Subsequent in Vitro and in Vivo Characterization of Metabolic Effects of Triphenyl Phosphate” (Environmental Health Perspectives, 2025).
Several values for one entry are separate records, joined by “and”; a condition that tells them apart may be missing. Equal values may be shown once.

Legend:
[1] = system: FXR, PXR and PPARγ target genes in liver; test: qPCR of genes in mouse liver; type: in vivo, C57BL/6N mice
Protocol: (§1) Male C57BL/6N mice (8 wk of age) were purchased from Beijing Vital River Laboratory Inc. and acclimated to the environment for 2 wk before they were used for experiments. The environment was maintained at 22°C, in a 12-h light/dark cycle with 50%–60% relative humidity and fed standard chow diets. Because the male mice are more sensitive to metabolic disease than female mice and the estrous cycle of female mice may induce variability to the metabolic phenotypes,[50] only male mice were used in this study. Animals were randomly assigned to control or TPHP treatment groups (five mice per group). Mice were exposed to corn oil (control) purchased from Sigma-Aldrich (C8267) or TPHP (dissolved in corn oil) at 10mg/kg or 50mg/kg body weight (BW) by daily oral gavage for 35 d. The administered volume was 5mL/kg BW. The TPHP corn oil solutions for administration were prepared by dissolving the TPHP in corn oil, and the solutions were stored at −20°C and freshly prepared each week. BW was measured every other day during the dosing period. At the end of experiments, the mice were anesthetized with isoflurane, then blood was collected from the retro-orbital sinus via orbital puncture, and then the mice were euthanized by cervical dislocation. The liver was isolated, weighted, and divided into three fractions: one fraction was fixed with 4% neutral-buffered formalin for Oil Red staining; another fraction was frozen in liquid nitrogen and stored at −80°C for the BA targeted analysis, lipidomic analysis, and qPCR analysis; the remaining fraction was embedded with 3% carboxymethylcellulose (CMC) for MSI analysis. The ileum was also isolated, weighted, and stored at −80°C for the BA targeted analysis and qRT-PCR analysis. Cecal contents were collected from the cecum of mice for the 16S rRNA gene sequencing analysis. Animal study protocols were approved by the Animal Care and Use Committee of Peking University (approval number: Urban-WanY-1).
Total RNA was extracted from cells or mice tissues (liver and ileum) using the Total RNA kit (Tiangen Biotech), and concentration and quality of the RNA were determined using a SMA4000 Nanodrop spectrophotometer (Merinton). Then, the RNA was reverse transcribed into cDNA by HiScript III RT SuperMix for qPCR (Vazyme). In addition, qPCR was performed in the Mx3005P real-time PCR system (Agilent Technologies) with the ChamQ SYBR qPCR Master Mix Kit (Vazyme). Reactions were carried out for 5 min at 95°C, followed by 40 cycles of two-step PCR for 10 s at 95°C and 30 s at 60°C. The relative RNA expression levels of the target genes were normalized to GAPDH using the 2^−ΔΔCt method.

[2] = system: C57BL/6N mice; test: Hepatic total bile acids (TBA colorimetric assay kit); type: in vivo; settings: for Hepatic TBA: individual mice
Protocol: as §1, with “Cecal contents were collected from the cecum of mice for the 16S rRNA gene sequencing analysis. Animal study protocols were approved by the Animal Care and Use Committee of Peking University (approval number: Urban-WanY-1).” left out
The TG level in the liver was determined using a triglyceride enzymatic assay kit (Applygen). […] The total BA level in the liver was determined using a Total Bile Acid (TBA) Colorimetric Assay Kit (Elabscience). […] Both the TG and TBA results were normalized by the protein concentration determined by bicinchoninic acid (BCA) method using a BCA kit (Applygen).

O=P(Oc1ccccc1)(Oc1ccccc1)Oc1ccccc1 [TPHP, triphenyl phosphate]
Relative mRNA expression of Cyp7b1 in liver ([1]; TPHP-H: 50 mg/kg, 35 d): 1.54 fold changes and 0.80 fold changes and 0.81 fold changes
Relative mRNA expression of Cyp8b1 in liver ([1]; TPHP-H: 50 mg/kg, 35 d): 1.26 fold changes and 1.33 fold changes and 0.86 fold changes
Relative mRNA expression of Cyp27a1 in liver ([1]; TPHP-H: 50 mg/kg, 35 d): 0.93 fold changes and 1.23 fold changes and 1.03 fold changes
Relative mRNA expression of Dgat2 in liver ([1]; TPHP-H: 50 mg/kg, 35 d): 1.67 fold changes and 1.99 fold changes and 1.63 fold changes
Relative mRNA expression of Fae in liver ([1]; TPHP-H: 50 mg/kg, 35 d): 1.30 fold changes and 0.87 fold changes and 0.66 fold changes
Relative mRNA expression of Hmgcs2 in liver ([1]; TPHP-H: 50 mg/kg, 35 d): 0.85 fold changes and 0.69 fold changes and 1.21 fold changes
Relative mRNA expression of Mdr3 in liver ([1]; TPHP-H: 50 mg/kg, 35 d): 0.80 fold changes and 0.96 fold changes and 0.74 fold changes
Relative mRNA expression of Mrp2 in liver ([1]; TPHP-H: 50 mg/kg, 35 d): 0.83 fold changes and 0.55 fold changes and 0.76 fold changes
Relative mRNA expression of Mrp3 in liver ([1]; TPHP-H: 50 mg/kg, 35 d): 1.11 fold changes and 0.88 fold changes and 0.87 fold changes
Relative mRNA expression of Mrp4 in liver ([1]; TPHP-H: 50 mg/kg, 35 d): 0.96 fold changes and 0.80 fold changes and 0.67 fold changes
Relative mRNA expression of Ntcp in liver ([1]; TPHP-H: 50 mg/kg, 35 d): 1.19 fold changes and 1.58 fold changes and 1.51 fold changes
Relative mRNA expression of Scd1 in liver ([1]; TPHP-H: 50 mg/kg, 35 d): 0.43 fold changes and 0.64 fold changes and 0.58 fold changes
Relative mRNA expression of Srebp1c in liver ([1]; TPHP-H: 50 mg/kg, 35 d): 2.82 fold changes and 2.12 fold changes and 2.38 fold changes
Relative mRNA expression of Acc1 in liver ([1]; TPHP-L: 10 mg/kg, 35 d): 1.60 fold changes and 1.11 fold changes and 0.88 fold changes
Relative mRNA expression of Acly in liver ([1]; TPHP-L: 10 mg/kg, 35 d): 1.63 fold changes and 1.57 fold changes and 1.51 fold changes
Relative mRNA expression of Bsep in liver ([1]; TPHP-L: 10 mg/kg, 35 d): 0.72 fold changes and 0.48 fold changes and 0.41 fold changes
Relative mRNA expression of Cd36 in liver ([1]; TPHP-L: 10 mg/kg, 35 d): 1.18 fold changes and 0.78 fold changes and 1.04 fold changes
Relative mRNA expression of Cpt1a in liver ([1]; TPHP-L: 10 mg/kg, 35 d): 0.92 fold changes and 1.04 fold changes and 0.99 fold changes
Relative mRNA expression of Cyp3a11 in liver ([1]; TPHP-L: 10 mg/kg, 35 d): 1.21 fold changes and 0.78 fold changes and 0.67 fold changes
Relative mRNA expression of Cyp7b1 in liver ([1]; TPHP-L: 10 mg/kg, 35 d): 0.65 fold changes and 1.07 fold changes and 0.98 fold changes
Relative mRNA expression of Cyp8b1 in liver ([1]; TPHP-L: 10 mg/kg, 35 d): 1.44 fold changes and 1.13 fold changes and 0.80 fold changes
Relative mRNA expression of Cyp27a1 in liver ([1]; TPHP-L: 10 mg/kg, 35 d): 1.02 fold changes and 1.04 fold changes and 0.92 fold changes
Relative mRNA expression of Dgat2 in liver ([1]; TPHP-L: 10 mg/kg, 35 d): 1.22 fold changes and 1.92 fold changes and 1.34 fold changes
Relative mRNA expression of Fae in liver ([1]; TPHP-L: 10 mg/kg, 35 d): 1.41 fold changes and 0.87 fold changes and 0.80 fold changes
Relative mRNA expression of Hmgcs2 in liver ([1]; TPHP-L: 10 mg/kg, 35 d): 0.83 fold changes and 1.02 fold changes and 0.93 fold changes
Relative mRNA expression of Mdr3 in liver ([1]; TPHP-L: 10 mg/kg, 35 d): 1.09 fold changes and 0.85 fold changes and 0.67 fold changes
Relative mRNA expression of Mrp2 in liver ([1]; TPHP-L: 10 mg/kg, 35 d): 0.71 fold changes and 1.09 fold changes and 0.57 fold changes
Relative mRNA expression of Mrp3 in liver ([1]; TPHP-L: 10 mg/kg, 35 d): 0.90 fold changes and 0.72 fold changes and 0.89 fold changes
Relative mRNA expression of Mrp4 in liver ([1]; TPHP-L: 10 mg/kg, 35 d): 0.86 fold changes and 0.84 fold changes and 0.91 fold changes
Relative mRNA expression of Ntcp in liver ([1]; TPHP-L: 10 mg/kg, 35 d): 1.52 fold changes and 1.66 fold changes and 1.26 fold changes
Relative mRNA expression of Scd1 in liver ([1]; TPHP-L: 10 mg/kg, 35 d): 0.40 fold changes and 0.59 fold changes and 0.35 fold changes
Relative mRNA expression of Srebp1c in liver ([1]; TPHP-L: 10 mg/kg, 35 d): 2.35 fold changes and 1.89 fold changes and 2.01 fold changes
Expression of FXR-regulated lipogenesis genes (Srebp1c, Dgat2, Acly, Acc1) in liver (in words) ([1]; TPHP-exposed mice): up-regulated
Expression of Scd1 in the liver (in words) ([1]; TPHP-exposure groups): significantly lower
Expression of PXR and PPARγ target genes in the liver, except Scd1 (in words) ([1]; after TPHP exposure): not significantly different
Expression of Cyp7a1 in liver, higher than in control group ([1]; both TPHP-L and TPHP-H groups): approximately 2 folds
Increase of total BA concentration in the liver relative to the control group ([2]; TPHP-H group, 35 d of exposure): 2 fold
Hepatic TBA ([2]; TPHP-H: 50 mg/kg daily oral gavage 35 d): 2.67 µmol/g and 2.92 µmol/g and 2.08 µmol/g
Hepatic TBA ([2]; TPHP-L: 10 mg/kg daily oral gavage 35 d): 1.89 µmol/g and 1.55 µmol/g and 1.58 µmol/g
